Test results: article PMC11311697, “Exploring the Role of Neuropeptide PACAP in Cytoskeletal Function Using Spectroscopic Methods” (International Journal of Molecular Sciences, 2024)
Ends that are not written are not given here.

Columns and labels:
PAC1 receptor = conditions: ref [7],[8]; cited from earlier work
Excerpt: PACAP can bind to VPAC1 (VIP receptor type 1) and VPAC2 (VIP receptor […]) receptors, which also bind VIP, due to their structural similarity. […] The high specificity of PAC1 receptors for PACAP makes them ideal for studying PACAP–receptor interactions. PAC1 receptors, being GS protein-coupled receptors (GPCRs ...

G-actin = G-actin (Oryctolagus cuniculus, UniProt P68135); assay: Steady-state anisotropy of Alexa488NHS-labeled G-actin with PACAP; type: binding, rabbit; conditions: 0.2 µM A488NHS-labeled G-actin; PACAP 0 to 5 µM; 50 mM KCl, 1 mM MgCl2, 4 μM LatA, 1 mM EGTA, G-buffer pH 7.8; 20 °C; ex 488 nm; mean ± SD, at least three independent experiments; read-out: dissociation equilibrium constant (KD), in Figure 3
Procedure: Actin was prepared from acetone-dried muscle powder from rabbit skeletal muscle according to the method of Spudich and Watt modified by Mossakowska et al.. Shortly, the acetone-dried powder was extracted in G-buffer (4 mM TRIS (Sigma-Aldrich, Saint Louis, MO, USA), 0.1 mM CaCl2 (Sigma-Aldrich, Saint Louis, MO, USA), 0.2 mM ATP (VWR International LLC, Radnor, PA, USA), 0.5 mM DTT (VWR International LLC, Radnor, PA, USA), pH 7.8), mixed on ice with a magnetic stirrer (30 min, 80 rpm). The mixture was filtered through quadruple-layered gauze, supplemented with additional G-buffer, mixed further (40 min, 80 rpm), filtered again, and centrifuged (30,000 rpm, 4 °C, 30 min). […] After clarification centrifugation (80,000 rpm, 30 min, 4 °C), the supernatant was removed and actin absorbance was measured using a spectrophotometer to determine its concentration. […]
For our investigation, we utilized A488NHS green-fluorescent dye, which remains stable between pH 4 and 10, with peak emission when excited at 488 nm. […] In vitro anisotropy and fluorescence emission measurements involved 0.2 µM Alexa488NHS-Mg^2+-ATP-G-actin (Alexa488NHS labeled G-actin) with varying PACAP concentrations. […] The cuvette (Hellma® fluorescence, ultra Micro, Suprasil® quartz, spectral range 200–2500 nm) had optical path lengths of ex = 10 mm/em = 2 mm. […]

[1] = tested on: adenylate cyclase, rat pituitary cells; conditions: versus VIP, ref [2]; cited from earlier work
Excerpt: Pituitary adenylate cyclase-activating polypeptide (PACAP) was first isolated from the sheep hypothalamus in 1989 [1, 2]. It belongs to the vasoactive intestinal peptide (VIP)/glucagon/secretin peptide family, sharing 68% structural homology with VIP, but stimulating adenylate cyclase activity 1000 times more effectively in rat pituitary cells. PACAP plays crucial roles in the nervous and endocrine systems, acting as a hormone, neurotransmitter, vasodilator, and neuromodulator, and potentially having neurotrophic or neuroprotective functions. PACAP exists in two biologically ...

[2] = tested on: dihydropyrimidinase like 2 (DPYL2); conditions: ischemic brain tissue; ref [43],[44]; cited from earlier work
Excerpt: (§1) PACAP synergizes with multiple factors to promote neurite growth in different cell lines. It works with nerve growth factor (NGF) and VIP to stimulate neuritogenesis, increasing neurite length and branching, similar to brain-derived neurotrophic factor (BDNF). […] In traumatic central nervous system (CNS) injuries, PACAP has cytoprotective and antiapoptotic effects. It increases dihydropyrimidinase li ...

[3] = tested on: neurite growth in different cell lines; conditions: ref [40],[41],[42]; cited from earlier work
Excerpt: as §1

[4] = tested on: traumatic brain injury (TBI); conditions: intracerebroventricular (icv); brain regions such as corticospinal tract and medial longitudinal fasciculus; ref [45],[46]; cited from earlier work
Excerpt: as §1

[5] = tested on: streptozotocin-induced diabetes model; design: method as in PMID 34639032; conditions: ref [76]; cited from earlier work
Tau = conditions: ref [1],[79]; cited from earlier work
Excerpt: (§2) As mentioned above, PACAP plays a significant role in mitigating neuronal damage and promoting cell survival. […] The misfolding and aggregation of proteins such as Tau are hallmarks of neurodegenerative diseases like Alzheimer’s.

caspase-3 = conditions: ref [1],[79]; cited from earlier work
Excerpt: as §2

astrocyte = conditions: by increasing cAMP levels; ref [57]; cited from earlier work
Excerpt: The polymerization of G-actin into filamentous actin (F-actin) is essential for maintaining cellular structural integrity and supporting dynamic processes. Actin filaments, which form the cell’s cytoskeleton, provide mechanical strength and stability. The F-actin network supports various cellular functions, including cell migration, division, and intracellular transport, by continuously polymerizing and depolymerizing. The dynamic nature of F-actin allows cells to adapt to environmental changes and respond to signals, interacting with regulatory proteins to influence membrane protr ...

Ca^2+-F-actin = tested on: Ca^2+-F-actin; design: method as in doi:10.1007/s10973-024-13286-2, doi:10.1007/s10973-024-13289-z; conditions: DSC; ref [81],[82]; cited from earlier work
[6] = tested on: Ca^2+-G actin and Ca^2+-F actin; conditions: DSC; ref [81],[82]; cited from earlier work
Excerpt: In previous investigations, we employed differential scanning calorimetry (DSC) to explore the impact of various PACAP fragments on the thermal stability of Ca^2+-G actin and Ca^2+-F actin.

Compound: vasoactive intestinal peptide [VIP]
- binding to PAC1 receptor (in words) (PAC1 receptor): low affinity

Compound: CSCC[C@H](NC(=O)[C@H](CCC(N)=O)NC(=O)[C@H](CCCCN)NC(=O)[C@H](CCCNC(=N)N)NC(=O)[C@H](Cc1ccc(O)cc1)NC(=O)[C@H](CCCNC(=N)N)NC(=O)[C@H](CO)NC(=O)[C@H](Cc1ccc(O)cc1)NC(=O)[C@H](CO)NC(=O)[C@H](CC(=O)O)NC(=O)[C@@H](NC(=O)[C@@H](N)Cc1ccccc1)[C@@H](C)O)C(=O)N[C@@H](C)C(=O)N[C@H](C(=O)N[C@@H](CCCCN)C(=O)N[C@@H](CCCCN)C(=O)N[C@@H](Cc1ccc(O)cc1)C(=O)N[C@@H](CC(C)C)C(=O)N[C@@H](C)C(=O)N[C@@H](C)C(=O)N[C@H](C(=O)N[C@@H](CC(C)C)C(=O)NCC(=O)N[C@@H](CCCCN)C(=O)N[C@@H](CCCNC(=N)N)C(=O)N[C@@H](Cc1ccc(O)cc1)C(=O)N[C@@H](CCCCN)C(=O)N[C@@H](CCC(N)=O)C(=O)N[C@@H](CCCNC(=N)N)C(=O)N[C@H](C(=O)N[C@@H](CCCCN)C(=O)N[C@@H](CC(N)=O)C(=O)N[C@@H](CCCCN)C(N)=O)C(C)C)C(C)C)C(C)C [PACAP6-38]
- Kd (G-actin): 150.46 ± 0.03 nM

Compound: Pituitary adenylate cyclase-activating polypeptide [PACAP]
- stimulation of adenylate cyclase activity relative to VIP [1]: 1000 times
- effect on DPYL2 protein levels (in words) [2]: increases dihydropyrimidinase like 2 (DPYL2) protein levels in ischemic brain tissue
- effect on axon growth / neurite growth (in words) [3]: enhances axon length and cell body size but does not affect dendrite length
- effect on axonal swellings and amyloid plaque accumulation (in words) [4]: reduces axonal swellings and amyloid plaque accumulation
- effect on morphological signs of nerve injury and hyperalgesia (in words) [5]: reduced morphological signs of nerve injury (axon–myelin separation, elevated mitochondrial number in myelinated axons, unmyelinated fiber atrophy, and basement membrane thickening of endoneurial vessels) while also attenuating pressure and touch hyperalgesia
- effect on Tau phosphorylation (in words) (Tau): enhances Tau phosphorylation and prevents its dephosphorylation
- effect on caspase-3 activity (in words) (caspase-3): inhibits caspase-3 activity
- effect on actomyosin stress fibers (in words) (astrocyte): promotes actomyosin stress fiber depolymerization

Compound: PACAP6-27: PACAP fragment examined by DSC in earlier studies (FTDSYSRYRKQMAVKKYLAAVL; ends and bridges not checked; UniProt P18509 137-158, looked up, fragment)
- denaturation temperature of Ca2+-F-actin compared with control (in words) (Ca^2+-F-actin): did not show significant changes
- effect on thermal properties of actin (in words) [6]: altered the thermal stability of actin, albeit to a lesser degree

Compound: CC[C@H](C)[C@H](NC(=O)CNC(=O)[C@H](CC(=O)O)NC(=O)[C@H](CO)NC(=O)[C@@H](N)Cc1cnc[nH]1)C(=O)N[C@@H](Cc1ccccc1)C(=O)N[C@H](C(=O)N[C@@H](CC(=O)O)C(=O)N[C@@H](CO)C(=O)N[C@@H](Cc1ccc(O)cc1)C(=O)N[C@@H](CO)C(=O)N[C@@H](CCCNC(=N)N)C(=O)N[C@@H](Cc1ccc(O)cc1)C(=O)N[C@@H](CCCNC(=N)N)C(=O)N[C@@H](CCCCN)C(=O)N[C@@H](CCC(N)=O)C(=O)N[C@@H](CCSC)C(=O)N[C@@H](C)C(=O)N[C@H](C(=O)N[C@@H](CCCCN)C(=O)N[C@@H](CCCCN)C(=O)N[C@@H](Cc1ccc(O)cc1)C(=O)N[C@@H](CC(C)C)C(=O)N[C@@H](C)C(=O)N[C@@H](C)C(=O)N[C@H](C(=O)N[C@@H](CC(C)C)C(=O)NCC(=O)N[C@@H](CCCCN)C(=O)N[C@@H](CCCNC(=N)N)C(=O)N[C@@H](Cc1ccc(O)cc1)C(=O)N[C@@H](CCCCN)C(=O)N[C@@H](CCC(N)=O)C(=O)N[C@@H](CCCNC(=N)N)C(=O)N[C@H](C(=O)N[C@@H](CCCCN)C(=O)N[C@@H](CC(N)=O)C(=O)N[C@@H](CCCCN)C(N)=O)C(C)C)C(C)C)C(C)C)[C@@H](C)O [PACAP38, Pituitary adenylate cyclase-activating polypeptide 38]
- Kd (G-actin): 97.22 ± 0.01 nM
